“Also recorded” adds a separate entry of the source.

One series concerns the target T1, progesterone receptor (Sus scrofa, UniProt D0EWS6).
T1 construct: from tissue; host or cells: hog uterus, cytosol (100,000×g supernatant)
T1 sequence (D0EWS6 1-934): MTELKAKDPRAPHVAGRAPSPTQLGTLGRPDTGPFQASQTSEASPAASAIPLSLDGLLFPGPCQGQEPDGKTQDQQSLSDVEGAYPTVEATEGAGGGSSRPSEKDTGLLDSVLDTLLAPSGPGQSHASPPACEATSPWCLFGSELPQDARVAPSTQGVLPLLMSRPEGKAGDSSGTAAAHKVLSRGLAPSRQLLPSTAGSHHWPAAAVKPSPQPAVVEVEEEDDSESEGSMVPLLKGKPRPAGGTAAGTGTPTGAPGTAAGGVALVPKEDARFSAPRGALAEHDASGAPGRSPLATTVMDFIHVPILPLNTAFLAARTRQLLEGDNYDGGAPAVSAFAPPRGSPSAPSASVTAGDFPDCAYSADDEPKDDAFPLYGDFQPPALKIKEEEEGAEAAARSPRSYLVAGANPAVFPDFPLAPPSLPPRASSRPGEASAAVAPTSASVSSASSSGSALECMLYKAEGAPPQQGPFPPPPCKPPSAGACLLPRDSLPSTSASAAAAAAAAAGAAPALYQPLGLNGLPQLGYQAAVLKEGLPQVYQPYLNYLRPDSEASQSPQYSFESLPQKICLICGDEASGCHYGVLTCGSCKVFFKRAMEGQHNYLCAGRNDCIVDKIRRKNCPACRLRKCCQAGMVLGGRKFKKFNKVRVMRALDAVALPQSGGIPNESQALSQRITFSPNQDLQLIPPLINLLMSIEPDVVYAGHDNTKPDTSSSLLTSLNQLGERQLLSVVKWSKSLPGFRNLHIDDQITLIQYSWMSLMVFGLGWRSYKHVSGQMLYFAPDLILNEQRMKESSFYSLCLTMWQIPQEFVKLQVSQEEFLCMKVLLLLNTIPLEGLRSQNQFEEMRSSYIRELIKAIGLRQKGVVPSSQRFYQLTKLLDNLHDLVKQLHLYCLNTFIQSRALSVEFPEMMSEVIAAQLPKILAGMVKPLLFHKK
The series is described as follows: progesterone receptor binding activity (3H-progesterone, hog uterus cytosol). Details: species or system hogs. To be noted: 1 h, 30 μM test substance, 4° C., 60 minutes, read-out: inhibition of the binding of 3H-progesterone to the progesterone receptor (inhibition ratio). As to the method:
The progesterone receptor binding activity of substance PF1092A, substance PF1092B and substance PF1092C of the present invention was measured in the following manner in accordance with the method of H. Kondo et al. (J. Antibiotics, vol. 43, pp. 1533-1542, 1990). That is, uteri taken from hogs in 5 mM phosphate buffer were disrupted using Polytron homogenizer, and the resulting solution was subjected to centrifugation (100,000×g, 30 minutes) to separate the supernatant fluid which was used as the cytosol containing progesterone receptor.
In the assay of progesterone receptor binding activity, 40 μl of a solution of ^3 H-progesterone as a ligand of the receptor (3.84 TBq/mmol, 18.5 kBq/ml), 50 μl of the just obtained cytosol (2-3 mg protein/ml), 30 μM of substance PF1092A, substance PF1092B and substance PF1092C and 30 μM of medroxyprogesterone acetate (MPA) were put into a test tube and incubated at 4° C. for 60 minutes to effect the reaction and then mixed with 100 μl of 0.5% activated carbon solution. After 10 minutes of standing, this was subjected to centrifugation (2,000×g, 10 minutes), and radioactivity of the thus obtained supernatant fluid was measured using a liquid scintillation counter. Inhibition ratio was calculated based on the following formula in which radioactivity with no addition of the test drug was defined as the amount of total binding to the cytosol and radioactivity with the addition of MPA was defined as the amount of non-specific binding. [formula]

Series [1] in a line: Solubility (physico-chemical properties). Type of series: physicochemical. The conditions noted are these: qualitative, in organic solvents and in water.

Turning to `CC(=O)OC1C(O)C=C2C=C3OC(=O)C(C)=C3CC2(C)C1C` (stereo not drawn) [PF1092A], the inhibition at 30 µM at progesterone receptor is at least 90%. Moreover, in series [1], the Solubility result was “soluble in chloroform, acetone, ethyl acetate, methanol and dimethyl sulfoxide, and insoluble in water and hexane”.

Consider `CC(=O)OC1C=C2C=C3OC(=O)C(C)=C3CC2(C)C(C)C1O` (stereo not drawn) [PF1092B], for which the inhibition at 30 µM on progesterone receptor is at least 90%. In series [1], the Solubility result was “soluble in chloroform, acetone, ethyl acetate, methanol and dimethyl sulfoxide, and insoluble in water and hexane”.

For the compound `CC1=C2CC3(C)C(=CC(O)C(O)C3C)C=C2OC1=O` (stereo not drawn) [PF1092C], at progesterone receptor, the inhibition at 30 µM was about 70%. In addition, in series [1], the Solubility result is “soluble in chloroform, acetone, ethyl acetate, methanol and dimethyl sulf oxide, and insoluble in water and hexane; also recorded: soluble in chloroform, acetone, ethyl acetate, methanol and dimethyl sulfoxide, and insoluble in water and hexane”.

The record behind these values is patent US5789602A, “Physiologically active substances PF1092A, PF1092B and PF1092C, process for the production thereof, and contraceptives and anticancer drugs containing the same as active ingredients” (Meiji Seika Kaisha, Ltd., priority 1995, dated 1998).
